Measurements taken from US10928382B2, “Microfluidic device and method for analysis of tumor cell microenvironments” (Northeastern University, priority 2014, dated 2021).

Columns and labels:
[1] = tested on: co-cultured MCF7 and HS5 cells; assay: LIVE/DEAD viability assay, co-cultured MCF7 and HS5 fibroblast cell spheroids in microfluidic device; format: cell-based; conditions: 3D spheroids, doxorubicin 3200 nM and 12800 nM, FIG. 7D
[2] = tested on: adriamycin sensitive MCF7 cells; assay: LIVE/DEAD viability/cytotoxicity assay, adriamycin sensitive MCF7 cell spheroids in microfluidic device (compared with 2D monolayers); format: cell-based
Description: FIGS. 6A and 6B show adriamycin resistant MCF7 cell spheroids at 96 hr incubation without doxorubicin (FIG. 6A) and at 48 hr incubation with 12.8 μM doxorubicin (FIG. 6B). […] FIGS. 6C and 6D show adriamycin sensitive MCF7 cell spheroids at 96 hr incubation without doxorubicin (FIG. 6C) and at 48 hr incubation with 12.8 μM doxorubicin (FIG. 6D).

[3] = tested on: adriamycin resistant MCF7 cells; assay: LIVE/DEAD viability/cytotoxicity assay, adriamycin resistant MCF7 cell spheroids in microfluidic device (compared with 2D monolayers)
[4] = 3D spheroids, doxorubicin 800 nM to 12800 nM, FIG. 7C

COc1cccc2c1C(=O)c1c(O)c3c(c(O)c1C2=O)C[C@@](O)(C(=O)CO)C[C@@H]3O[C@H]1C[C@H](N)[C@H](O)[C@H](C)O1 [doxorubicin]
overall cell survival rate in response to doxorubicin, with fibroblasts versus MCF7 adriamycin sensitive spheroids alone [1]: significant increase in the overall cell survival rate
susceptibility to doxorubicin (red fluorescent nuclei staining) versus adriamycin resistant cells ([2]; 3D spheroids, 12.8 μM doxorubicin, 48 hr incubation, FIG. 6D vs 6B): more susceptible to doxorubicin than the adriamycin resistant cells
survival rate in spheroids [2, 4]: high and comparable survival rates
cell viability, 2D monolayers versus 3D spheroids ([2]; doxorubicin 1600 nM to 12800 nM, p<0.05, FIG. 7B): statistically significant difference in cell viability
cell viability, 2D monolayers versus 3D spheroids ([3]; 12.8 μM doxorubicin, p<0.05, cells more susceptible in 2D than 3D, FIG. 7A): statistically significant difference in cell viability
cell toxicity (red fluorescence, LIVE/DEAD assay) ([3]; 3D spheroids, 12.8 μM doxorubicin, 48 hr incubation, FIG. 6B): cell toxicity
survival rate in spheroids [3, 4]: high and comparable survival rates
